US8617562B2, “FOXM1 peptides and immunogenic compositions containing them” (OncoTherapy Science, Inc., priority 2009, dated 2013)
Entries after “also recorded” stand apart in the source; their conditions may differ. Square brackets hold non-standard residues; d marks the D form. Ends that are not written are not given here.

What was measured:
[1] = test system: peptide-pulsed TISI cells; test: IFN-gamma ELISA assay of CTL lines stimulated with FOXM1 peptides; type: cell-based, human; conditions: target cells pulsed with corresponding peptide vs without peptide pulse
Procedure: CTLs were expanded in culture using the method similar to the one described by Riddell et al. (Walter E A et al., N Engl J Med 1995 Oct. 19, 333(16): 1038-44; Riddell S R et al., Nat Med 1996 February, 2(2): 216-23). A total of 5×10^4 CTLs were suspended in 25 ml of AIM-V/5% AS medium with 2 kinds of human B-lymphoblastoid cell lines, inactivated by Mitomycin C, in the presence of 40 ng/ml of anti-CD3 monoclonal antibody (Pharmingen). One day after initiating the cultures, 120 IU/ml of IL-2 were added to the cultures. The cultures were fed with fresh AIM-V/5% AS medium containing 30 IU/ml of IL-2 on days 5, 8 and 11 (Tanaka H et al., Br J Cancer 2001 Jan. 5, 84(1): 94-9; Umano Y et al., Br J Cancer 2001 Apr. 20, 84(8): 1052-7; Uchida N et al., Clin Cancer Res 2004 Dec. 15, 10(24): 8577-86; Watanabe T et al., Cancer Sci 2005 August, 96(8): 498-506; Suda T et al., Cancer Sci 2006 May, 97(5): 411-9).
(§1) Specifically, peptide-pulsed TISI (1×10^4 cells/well) was prepared as stimulator cells. Cultured cells in 48 wells were used as responder cells. IFN-gamma ELISPOT assay and IFN-gamma ELISA assay were performed under manufacture procedure.
(§2) CTL activity of those CTL lines was determined by IFN-gamma ELISA assay (FIGS. 2a-d). […] Furthermore, CTL clones were established by limiting dilution from the CTL lines, and IFN-gamma production from CTL clones against target cells pulsed peptide was determined by IFN-gamma ELISA assay.

[2] = test system: peptide-pulsed TISI cells; test: IFN-gamma ELISPOT assay on CTLs induced with FOXM1 peptides; type: cell-based, human; conditions: target cells pulsed with the peptide vs not pulsed, day 21 after 3rd stimulation
Excerpt: Monocyte-derived dendritic cells (DCs) were used as antigen-presenting cells to induce cytotoxic T lymphocyte (CTL) responses against peptides presented on human leukocyte antigen (HLA). DCs were generated in vitro as described elsewhere (Nakahara S et al., Cancer Res 2003 Jul. 15, 63(14): 4112-8). Specifically, peripheral blood mononuclear cells (PBMCs) isolated from a normal volunteer (HLA-A*2402 positive) by Ficoll-Plaque (Pharmacia) solution were separated by adherence to a plastic tissue culture dish (Becton Dickinson) so as to enrich them as the monocyte fraction. The monocyte-enriched population was cultured in the presence of 1000 U/ml of granulocyte-macrophage colony-stimulating factor (R&D System) and 1000 U/ml of interleukin (IL)-4 (R&D System) in AIM-V Medium (Invitrogen) containing 2% heat-inactivated autologous serum (AS). After 7 days of culture, the cytokine-induced DCs were pulsed with 20 micro-g/ml of each of the synthesized peptides in the presence of 3 micro-g/ml of beta2-microglobulin for 3 hrs at 37 degrees C. in AIM-V Medium. The generated cells appeared to express DC-associated molecules, such as CD80, CD83, CD86 and HLA class II, on their cell surfaces (data not shown). These peptide-pulsed DCs were then inactivated by X-irradiation (20 Gy) and mixed at a 1:20 ratio with autologous CD8+ T cells, obtained by positive selection with CD8 Positive Isolation Kit (Dynal). These cultures were set up in 48-well plates (Corning); each well contained 1.5×10^4 peptide-pulsed DCs, 3×10^5 CD8+ T cells and 10 ng/ml of IL-7 (R&D System) in 0.5 ml of AIM-V/2% AS medium. Three days later, these cultures were supplemented with IL-2 (CHIRON) to a final concentration of 20 IU/ml. On days 7 and 14, the T cells were further stimulated with the autologous peptide-pulsed DCs. The DCs were prepared each time by the same way described above. CTLs were tested against peptide-pulsed TISI cells after the 3rd round of peptide stimulation on day 21 (Tanaka H et al., Br J Cancer 2001 Jan. 5, 84(1): 94-9; Umano Y et al., Br J Cancer 2001 Apr. 20, 84(8): 1052-7; Uchida N et al., Clin Cancer Res 2004 Dec. 15, 10(24): 8577-86; Watanabe T et al., Cancer Sci 2005 August, 96(8): 498-506; Suda T et al., Cancer Sci 2006 May, 97(5): 411-9).
as §1
CTLs for those peptides derived from FOXM1 were generated according to the protocols as described in “Materials and Methods”.

[3] = test system: peptide-pulsed TISI cells; test: IFN-gamma ELISA assay of CTL clones established by limiting dilution; type: cell-based, human; conditions: peptide-pulsed target cells vs not pulsed
Procedure: The dilutions were made to have 0.3, 1, and 3 CTLs/well in 96 round-bottomed micro titer plate (Nalge Nunc International). CTLs were cultured with 1×10^4 cells/well of 2 kinds of human B-lymphoblastoid cell lines, 30 ng/ml of anti-CD3 antibody, and 125 U/ml of IL-2 in a total of […] of AIM-V Medium containing 5% AS. 50 micro-1/well of IL-2 were added to the medium 10 days later so to reach a final concentration of 125 U/ml IL-2. CTL activity was tested on the 14th day, and CTL clones were expanded using the same method as described above (Uchida N et al., Clin Cancer Res 2004 Dec. 15, 10(24): 8577-86; Suda T et al., Cancer Sci 2006 May, 97(5): 411-9; Watanabe T et al., Cancer Sci 2005 August, 96(8): 498-506).
as §1, §2

[4] = test system: COS7 cells transfected with FOXM1 and HLA-A*2402; test: Specific CTL activity against target cells exogenously expressing FOXM1 and HLA-A*2402; type: cell-based, African green monkey
Excerpt: The cDNA encoding an open reading frame of target genes or HLA-A*2402 was amplified by PCR. The PCR-amplified products were cloned into pCAGGS vector. The plasmids were transfected into COST, which is the target genes and HLA-A24 negative cell line, using lipofectamine 2000 (Invitrogen) according to the manufacturer's recommended procedures. After 2 days from transfection, the transfected cells were harvested with versene (Invitrogen) and used as the target cells (5×10^4 cells/well) for CTL activity assay.
The established CTL lines and clones raised against these peptides were examined for their ability to recognize target cells that endogenously express FOXM1 and HLA-A*2402 gene. […] COS7 cells transfected with either full length of FOXM1 genes or HLA-A*2402 were prepared as controls.

Row | Substance | IFN-gamma production of CTL lines compared with the control [1] | IFN-gamma production of peptide-induced CTLs compared with the control [2] | other results
1 | IYTWIEDHF [SEQ ID NO: 2] | potent IFN-gamma production | potent IFN-gamma production | IFN-gamma production of CTL clones compared with the control ([3]; listed as FOXM1-A24-9-262): potent IFN-gamma production; specific CTL activity against COS7 cells transfected with both FOXM1 and HLA-A*2402 ([4]; CTLs raised by the peptide as effector cells, listed as FOXM1-A24-9-262): potent CTL activity; also recorded: specific CTL activity; specific CTL activity against control COS7 cells expressing either HLA-A*2402 or FOXM1 ([4]; controls transfected with only one gene): no significant specific CTL activity
2 | KFPAGIKII [SEQ ID NO: 8] |  | potent IFN-gamma production | 
3 | LTLDqVFKPL (LTLD[code q]VFKPL) [SEQ ID NO: 25] | potent IFN-gamma production | potent IFN-gamma production | 
4 | PYSYmAMIQF (PYSY[code m]AMIQF) [SEQ ID NO: 31] | potent IFN-gamma production | potent IFN-gamma production | IFN-gamma production of CTL clones compared with the control ([3]; listed as FOXM1-A24-10-238): potent IFN-gamma production
5 | RNMTIKTEL [SEQ ID NO: 7] |  | potent IFN-gamma production | 
6 | RYLTLDQVF [SEQ ID NO: 1] |  |  | IFN-gamma production of peptide-induced CTLs compared with the control ([2]; listed as FOXM1-A24-9-316): not shown specific IFN-gamma production; also recorded: typical negative data of CTL response
7 | SYMAmIQFAI (SYMA[code m]IQFAI) [SEQ ID NO: 16] | potent IFN-gamma production | potent IFN-gamma production | IFN-gamma production of CTL clones compared with the control ([3]; listed as FOXM1-A24-10-240): potent IFN-gamma production
8 | VLQPsVKVPL (VLQP[code s]VKVPL) [SEQ ID NO: 30] |  | potent IFN-gamma production | 
